Where a name gives a salt, the structure may show the parent alone.
Legend:
Assay type in all cases: biochemical
Settings in all cases: concentration required to double the clotting time
Human plasma [1] = assay: Human plasma anticoagulation, activated partial thromboplastin time (APTT)
Method: (§1) Dog plasma and rat plasma is obtained from conscious mixed-breed hounds (either sex, Hazelton-LRE, Kalamazoo, Mich., U.S.A.) or from anesthetized male Sprague-Dawley rats (Harlan Sprague-Dawley, Inc., Indianapolis, Ind., U.S.A.) by venipuncture into 3.8 percent citrate. Fibrinogen is prepared from in-date ACD human blood as the fraction I-2 according to previous procedures and specifications. […] Human fibrinogen is also purchased as 98 percent pure/plasmin free from American Diagnostica, Greenwich, Conn. Coagulation reagents ACTIN, Thromboplastin, and Human plasma are from Baxter Healthcare Corp., Dade Division, Miami, Fla. Bovine thrombin from Parke-Davis ([…], Mich.) is used for coagulation assays in plasma.
(§2) Coagulation assay procedures are as previously described. […] A CoAScreener coagulation instrument (American LABor, Inc.) is used for all coagulation assay measurements. The prothrombin time (PT) is measured by adding 0.05 mL saline and 0.05 mL Thromboplastin-C reagent to 0.05 mL test plasma. The activated partial thromboplastin time (APTT) is measured by incubation of 0.05 mL test plasma with 0.05 mL Actin reagent for 120 seconds followed by 0.05 mL CaCl2 (0.02M). The thrombin time (TT) is measured by adding 0.05 mL saline and 0.05 mL thrombin (10 NIH units/mL) to 0.05 mL test plasma. The compounds of Formula I are added to human or animal plasma over a wide range of concentrations to determine prolongation effects on the APTT, PT, and TT assays. Linear extrapolations are performed to estimate the concentrations required to double the clotting time for each assay.

Human plasma [2] = assay: Human plasma anticoagulation, thrombin time (TT)
Method: as §1, §2

Human plasma [3] = assay: Human plasma anticoagulation, prothrombin time (PT)
Method: as §1, §2

Nc1cc(CNC(=O)[C@@H]2CCCN2C(=O)[C@@H](CC2CCCCC2)NCC(=O)O)ccn1 [Example 73, HO2 CCH2 -D-Cha-Pro-4-NHCH2 -2-aminopyridine.HCl]
2x Clotting time APTT (Human plasma [1]): 340 ng/mL
2x Clotting time TT (Human plasma [2]): 21 ng/mL
2x Clotting time PT (Human plasma [3]): 330 ng/mL

O=C(O)CN[C@H](CC1CCCCC1)C(=O)N1CCC[C@H]1C(=O)NCCC1=CCNCC1 [Example 59, HO2 CCH2 -D-Cha-Pro-4-NHCH2 CH2 -3,4-dehydro-piperidine.HCl]
2x Clotting time APTT (Human plasma [1]): 5,500 ng/mL
2x Clotting time TT (Human plasma [2]): 420 ng/mL
2x Clotting time PT (Human plasma [3]): 7,000 ng/mL

CCS(=O)(=O)N[C@H](Cc1ccccc1)C(=O)N1CCC[C@H]1C(=O)NCCc1ccc(NC(=N)N)cc1 [Example 35, EtSO2 -D-Phe-Pro-p-NHCH2 CH2 C6 H4 CNH(NH)NH2.HCl]
2x Clotting time APTT (Human plasma [1]): 50,400 ng/mL
2x Clotting time TT (Human plasma [2]): 4,500 ng/mL
2x Clotting time PT (Human plasma [3]): 78,400 ng/mL

Nc1ccc(CNC(=O)[C@@H]2CCCN2C(=O)[C@@H](CC2CCCCC2)NCC(=O)O)cc1 [Example 62, HO2 CCH2 -D-Cha-Pro-4-NHCH2 C6 H4 NH2.HCl]
2x Clotting time TT (Human plasma [2]): 54 ng/mL

CCS(=O)(=O)N[C@H](Cc1ccccc1)C(=O)N1CCC[C@H]1C(=O)NCCc1cccc(C(=N)N)c1 [Example 27, EtSO2 -D-Phe-Pro-m-NHCH2 CH2 -C6 H4 C(=NH)NH2.HCl]
2x Clotting time APTT (Human plasma [1]): 27,800 ng/mL
2x Clotting time TT (Human plasma [2]): 1,940 ng/mL
2x Clotting time PT (Human plasma [3]): 27,000 ng/mL

D-Phe-Pro-p-NHCH2 C6 H4 C(NH)NH2.HCl [Example 15]
2x Clotting time APTT (Human plasma [1]): 89 ng/mL
2x Clotting time TT (Human plasma [2]): 9 ng/mL

CCS(=O)(=O)N[C@H](CC1CCCCC1)C(=O)N1CCC[C@H]1C(=O)NCc1ccc(CN)cc1 [Example 81, EtSO2 -D-Cha-Pro-4-NHCH2 C6 H4 CH2 NH2.HCl]
2x Clotting time APTT (Human plasma [1]): 1,500 ng/mL
2x Clotting time TT (Human plasma [2]): 110 ng/mL
2x Clotting time PT (Human plasma [3]): 2,700 ng/mL

CCS(=O)(=O)N[C@H](CC1CCCCC1)C(=O)N1CCC[C@H]1C(=O)NCc1ccnc(N)c1 [Example 83, EtSO2 -D-Cha-Pro-4-NHCH2 -2-aminopyridine.HCl]
2x Clotting time APTT (Human plasma [1]): 1,000 ng/mL
2x Clotting time TT (Human plasma [2]): 91 ng/mL
2x Clotting time PT (Human plasma [3]): 1,300 ng/mL

NCc1ccc(CNC(=O)[C@@H]2CCCN2C(=O)[C@H](N)Cc2ccccc2)cc1 [Example 10, D-Phe-Pro-p-NHCH2 C6 H4 CH2 NH2.HCl]
2x Clotting time TT (Human plasma [2]): 420 ng/mL

CS(=O)(=O)CC(=O)N[C@H](CC1CCCCC1)C(=O)N1CCC[C@H]1C(=O)NCc1ccc(C(=N)N)cc1 [Example 92, MeSO2 CH2 CO-D-Cha-Pro-p-NHCH2 C6 H4 C(NH)NH2.HCl]
2x Clotting time APTT (Human plasma [1]): 210 ng/mL
2x Clotting time TT (Human plasma [2]): 8.9 ng/mL
2x Clotting time PT (Human plasma [3]): 340 ng/mL

N=C(N)N1CCC(CCNC(=O)[C@@H]2CCCN2C(=O)[C@@H](CC2CCCCC2)NCC(=O)O)CC1 [Example 57, HO2 CCH2 -D-Cha-Pro-4-NHCH2 CH2 -1-amidinopiperidine.HCl]
2x Clotting time APTT (Human plasma [1]): 360 ng/mL
2x Clotting time TT (Human plasma [2]): 14 ng/mL
2x Clotting time PT (Human plasma [3]): 340 ng/mL

HOOCCH2 -D-hPhe-Pro-p-NHCH2 C6 H4 C(NH)NH2.HCl [Example 87]
2x Clotting time APTT (Human plasma [1]): 260 ng/mL
2x Clotting time TT (Human plasma [2]): 9 ng/mL
2x Clotting time PT (Human plasma [3]): 310 ng/mL

1-Piq-Pro-p-NHCH2 C6 H4 C(NH)NH2.2HCl [Example 18]
2x Clotting time APTT (Human plasma [1]): 79 ng/mL
2x Clotting time TT (Human plasma [2]): 7 ng/mL
2x Clotting time PT (Human plasma [3]): 170 ng/mL

N=C(N)Nc1cccc(CCNC(=O)[C@@H]2CCCN2C(=O)[C@@H]2NCC[C@@H]3CCCC[C@@H]32)c1 [Example 41, D-1-Piq-Pro-m-NHCH2 CH2 C6 H4 NHC(NH)NH2.2HCl]
2x Clotting time APTT (Human plasma [1]): > 91,000 ng/mL
2x Clotting time TT (Human plasma [2]): 82,200 ng/mL
2x Clotting time PT (Human plasma [3]): > 91,000 ng/mL

N=C(N)c1cccc(CNC(=O)[C@@H]2CCCN2C(=O)[C@H](N)Cc2ccccc2)c1 [Example 16, D-Phe-Pro-m-NHCH2 C6 H4 C(NH)NH2.0.75HCl]
2x Clotting time APTT (Human plasma [1]): 8,600 ng/mL
2x Clotting time TT (Human plasma [2]): 650 ng/mL
2x Clotting time PT (Human plasma [3]): 8,500 ng/mL

Nc1ccc(CNC(=O)[C@@H]2CCCN2C(=O)[C@@H](CC2CCCCC2)NCC(=O)O)c(F)c1 [Example 64, HO2 CCH2 -D-Cha-Pro-4-NHCH2 -3-F-C6 H3 NH2.HCl]
2x Clotting time APTT (Human plasma [1]): 900 ng/mL
2x Clotting time TT (Human plasma [2]): 23 ng/mL
2x Clotting time PT (Human plasma [3]): 650 ng/mL

N=C(N)Nc1cccc(CNC(=O)[C@@H]2CCCN2C(=O)[C@@H]2NCC[C@@H]3CCCC[C@@H]32)c1 [Example 40, D-1-Piq-Pro-m-NHCH2 C6 H4 NHC(NH)NH2.2HCl]
2x Clotting time APTT (Human plasma [1]): > 91,000 ng/mL
2x Clotting time TT (Human plasma [2]): 35,100 ng/mL
2x Clotting time PT (Human plasma [3]): > 91,000 ng/mL

NC[C@H]1CC[C@H](CNC(=O)[C@@H]2CCCN2C(=O)[C@H](N)Cc2ccccc2)CC1 (relative stereo) [Example 12, D-Phe-Pro-NHCH2 -trans-4-(aminomethyl)cyclohexane.HCl]
2x Clotting time TT (Human plasma [2]): 1,700 ng/mL

N=C(N)Nc1ccc(CNC(=O)[C@@H]2CCCN2C(=O)[C@@H]2NCC[C@@H]3CCCC[C@@H]32)cc1 [Example 38, D-1-Piq-Pro-p-NHCH2 C6 H4 NHC(NH)NH2.2HCl]
2x Clotting time APTT (Human plasma [1]): 6,100 ng/mL
2x Clotting time TT (Human plasma [2]): 540 ng/mL
2x Clotting time PT (Human plasma [3]): 11,100 ng/mL

N=C(N)c1ccc(CNC(=O)[C@@H]2CCCN2C(=O)[C@H]2C[C@H]3CCCC[C@H]3CN2)cc1 [Example 19, D-3-Piq-Pro-p-NHCH2 C6 H4 C(NH)NH2.3HCl]
2x Clotting time APTT (Human plasma [1]): 300 ng/mL
2x Clotting time TT (Human plasma [2]): 58 ng/mL
2x Clotting time PT (Human plasma [3]): 540 ng/mL

N=C(N)NC/C=C/CNC(=O)[C@@H]1CCCN1C(=O)[C@H](N)Cc1ccccc1 (relative stereo) [Example 8, D-Phe-Pro-NHCH2 -trans-CH=CHCH2 NHC(NH)NH2.HCl]
2x Clotting time TT (Human plasma [2]): 130 ng/mL

CCC(CC)C(=O)N[C@@H](CCC(=O)O)C(=O)N1CCC[C@H]1C(=O)NCc1ccc(C(=N)N)cc1 [Example 90, (C2 H5)2 CHCO-Glu-Pro-p-NHCH2 C6 H4 C(NH)NH2.HCl]
2x Clotting time APTT (Human plasma [1]): 14,500 ng/mL
2x Clotting time TT (Human plasma [2]): 330 ng/mL
2x Clotting time PT (Human plasma [3]): 14,600 ng/mL

CCS(=O)(=O)N[C@H](Cc1ccccc1)C(=O)N1CCC[C@H]1C(=O)NCc1cccc(C(=N)N)c1 [Example 24, EtSO2 -D-Phe-Pro-m-NHCH2 -C6 H4 C(=NH)NH2.HCl]
2x Clotting time APTT (Human plasma [1]): 25,900 ng/mL
2x Clotting time TT (Human plasma [2]): 1,000 ng/mL
2x Clotting time PT (Human plasma [3]): 25,000 ng/mL

CCS(=O)(=O)N[C@H](CC1CCCCC1)C(=O)N1CCC[C@H]1C(=O)NCCCCNC(=N)N [Example 2, EtSO2 -D-Cha-Pro-Agm.HCl]
2x Clotting time TT (Human plasma [2]): 170 ng/mL

Nc1ccc(CNC(=O)[C@@H]2CCCN2C(=O)[C@H](N)Cc2ccccc2)cc1 [Example 13, D-Phe-Pro-p-NHCH2 C6 H4 NH2.HCl]
2x Clotting time TT (Human plasma [2]): 660 ng/mL

Nc1ccc(CCNC(=O)[C@@H]2CCCN2C(=O)[C@H](N)Cc2ccccc2)cc1 [Example 14, D-Phe-Pro-p-NHCH2 CH2 C6 H4 NH2.HCl]
2x Clotting time TT (Human plasma [2]): 21,000 ng/mL

Nc1ccc(CCNC(=O)[C@@H]2CCCN2C(=O)[C@@H](CC2CCCCC2)NCC(=O)O)cc1 [Example 63, HO2 CCH2 -D-Cha-Pro-4-NHCH2 CH2 C6 H4 NH2.HCl]
2x Clotting time TT (Human plasma [2]): 680 ng/mL

CCOC(=O)N[C@H](Cc1ccccc1)C(=O)N1CCC[C@H]1C(=O)NCCCCNC(=N)N [Example 3, EtOCO-D-Phe-Pro-Agm.HCl]
2x Clotting time TT (Human plasma [2]): 590 ng/mL

N=C(N)NCc1ccc(CNC(=O)[C@@H]2CCCN2C(=O)[C@H](N)Cc2ccccc2)cc1 [Example 9, D-Phe-Pro-p-NHCH2 -C6 H4 CH2 NHC(NH)NH2.2TFA]
2x Clotting time TT (Human plasma [2]): > 91,000 ng/mL

N=C(N)NCCCCCCNC(=O)[C@@H]1CCCN1C(=O)[C@H](N)Cc1ccccc1 [Example 5, D-Phe-Pro-NH(CH2)6 NHC(NH)NH2.HCl]
2x Clotting time TT (Human plasma [2]): 30,000 ng/mL

N=C(N)NCCCNC(=O)[C@@H]1CCCN1C(=O)[C@H](N)Cc1ccccc1 [Example 7, D-Phe-Pro-NH(CH2)3 NHC(NH)NH2.HCl]
2x Clotting time TT (Human plasma [2]): 490 ng/mL

NCc1cccc(CNC(=O)[C@@H]2CCCN2C(=O)[C@H](N)Cc2ccccc2)c1 [Example 11, D-Phe-Pro-m-NHCH2 C6 H4 CH2 NH2.HCl]
2x Clotting time TT (Human plasma [2]): 8,800 ng/mL

Source: patent US5726159A, “Antithrombotic agents” (Eli Lilly and Company, priority 1995, dated 1998)
